# In US9204653B2, “5-fluoro pyrimidine derivatives” (DOW AGROSCIENCES LLC, priority 2008, dated 2015):
# Read-outs that look alike come from different tables or passages of the source.
# Test system: Mycosphaerella graminicola; Anamorph: Septoria tritici; Bayer Code SEPTTR
# Experiment: Leaf blotch of wheat, foliar fungicide treatment, one day protectant (1DP) or three day curative (3DC)
# Format: in vivo, Septoria tritici on wheat plants (variety Yuma)
# Conditions: Zymoseptoria tritici, rating of percent disease control
# [1] = 24 h, one day protectant (1DP), read-out: SETTTR 1DP 25 ppm
# [2] = 24 h, one day protectant (1DP), read-out: SEPTTR 1DP 100 ppm
# [3] = 72 h, three day curative (3DC), read-out: SEPTTR 3DC 25 ppm
# [4] = 72 h, three day curative (3DC), read-out: SEPTTR 3DC 100 ppm
# [5] = 24 h, one day protectant, read-out: SETTTR 1DP 25 ppm
# [6] = 24 h, one day protectant, read-out: SEPTTR 1DP 100 ppm
# [7] = 72 h, three day curative, read-out: SEPTTR 3DC 25 ppm
# [8] = 72 h, three day curative, read-out: SEPTTR 3DC 100 ppm
SMILES,pest or weed control at 25 ppm [1] [%],pest or weed control at 100 ppm [2] [%],pest or weed control at 25 ppm [3] [%],pest or weed control at 100 ppm [4] [%],pest or weed control at 25 ppm [5] [%],pest or weed control at 100 ppm [6] [%],pest or weed control at 25 ppm [7] [%],pest or weed control at 100 ppm [8] [%]
N#Cc1cccc(COc2ncc(F)c(NC(=S)NCc3ccccc3F)n2)c1 [Compound 504],0 to 25,51 to 75,0 to 25,0 to 25,–,–,–,–
Fc1cnc(OCc2cccs2)nc1NCOCc1ccccc1 [Compound 506],26 to 50,76 to 100,0 to 25,0 to 25,–,–,–,–
CC[Si](CC)(CC)Nc1nc(OCCc2ccc(Cl)cc2)ncc1F [Compound 507],51 to 75,76 to 100,0 to 25,76 to 100,–,–,–,–
Nc1nc(OCc2ccsc2)ncc1F [Compound 508],76 to 100,76 to 100,76 to 100,76 to 100,–,–,–,–
Nc1nc(OCC2CC2(F)F)ncc1F (centres unmarked) [Compound 509],0 to 25,0 to 25,26 to 50,0 to 25,–,–,–,–
Cn1ccc2cc(COc3ncc(F)c(N)n3)ccc21 [Compound 511],51 to 75,51 to 75,26 to 50,26 to 50,–,–,–,–
CCC(Oc1ncc(F)c(N)n1)c1ccc(F)cc1 (centres unmarked) [Compound 513],76 to 100,76 to 100,76 to 100,76 to 100,–,–,–,–
Fc1ccc(COc2ncc(F)c(NNc3ccccc3Cl)n2)cc1 [Compound 515],0 to 25,76 to 100,0 to 25,0 to 25,–,–,–,–
CCOCNc1nc(OCc2cccc(C#N)c2)ncc1F [Compound 516],76 to 100,76 to 100,76 to 100,76 to 100,–,–,–,–
COC(=O)Oc1ncc(F)c(/N=C/N(C)C)n1 [Compound 517],76 to 100,76 to 100,76 to 100,76 to 100,–,–,–,–
CCCCN(C)/C=N/c1nc(OCc2ccc(F)cc2)ncc1F [Compound 518],76 to 100,76 to 100,76 to 100,76 to 100,–,–,–,–
COc1ccc(COc2ncc(F)c(NC(=O)Nc3ccccc3F)n2)cc1F [Compound 519],0 to 25,0 to 25,0 to 25,0 to 25,–,–,–,–
N#Cc1ccnc(COc2ncc(F)c(N)n2)c1 [Compound 522],0 to 25,26 to 50,0 to 25,0 to 25,–,–,–,–
COc1ccc(OC(=O)Oc2ncc(F)c(/N=C/N(C)C)n2)cc1 [Compound 523],76 to 100,76 to 100,76 to 100,76 to 100,–,–,–,–
O=[N+]([O-])c1ccccc1SNc1nc(OCc2cc(F)c(F)c(F)c2)ncc1F [Compound 525],76 to 100,76 to 100,76 to 100,76 to 100,–,–,–,–
O=[N+]([O-])c1ccccc1SNc1nc(OCc2ccc(F)c(C(F)(F)F)c2)ncc1F [Compound 527],51 to 75,76 to 100,0 to 25,0 to 25,–,–,–,–
CCCNC(=S)Nc1nc(OCc2cccs2)ncc1F [Compound 528],76 to 100,76 to 100,0 to 25,51 to 75,–,–,–,–
O=C(Nc1ccsc1)Nc1nc(OCCNc2ccccc2)ncc1F [Compound 529],0 to 25,0 to 25,0 to 25,0 to 25,–,–,–,–
CN1CCCC/C1=N\c1nc(OCc2cccs2)ncc1F [Compound 530],76 to 100,76 to 100,51 to 75,76 to 100,–,–,–,–
COc1cccc(COc2ncc(F)c(NC(=O)OCc3ccccc3)n2)c1 [Compound 531],76 to 100,76 to 100,76 to 100,76 to 100,–,–,–,–
COc1cccc(COc2ncc(F)c(N/N=C/c3ncc[nH]3)n2)c1 [Compound 532],26 to 50,51 to 75,0 to 25,26 to 50,–,–,–,–
CCC(C)/C(C)=N/Nc1nc(OCc2ccc(C)cc2)ncc1F (centres unmarked) [Compound 533],51 to 75,51 to 75,0 to 25,26 to 50,–,–,–,–

SMILES,pest or weed control at 25 ppm [1] [%],pest or weed control at 100 ppm [2] [%],pest or weed control at 25 ppm [3] [%],pest or weed control at 100 ppm [4] [%],pest or weed control at 25 ppm [5] [%],pest or weed control at 100 ppm [6] [%],pest or weed control at 25 ppm [7] [%],pest or weed control at 100 ppm [8] [%]
CCCNC(=O)Nc1nc(OCc2cccc(OC)c2)ncc1F [Compound 534],0 to 25,26 to 50,0 to 25,26 to 50,–,–,–,–
COc1cccc(COc2ncc(F)c(NC(=O)Nc3ccccc3F)n2)c1 [Compound 535],0 to 25,0 to 25,0 to 25,0 to 25,–,–,–,–
CCCNC(=O)Nc1nc(OCc2ccc(C)cc2)ncc1F [Compound 536],0 to 25,0 to 25,26 to 50,26 to 50,–,–,–,–
CCCCOc1ccc(COc2ncc(F)c(N)n2)cc1 [Compound 537],76 to 100,76 to 100,76 to 100,76 to 100,–,–,–,–
Fc1ccccc1NC(=S)Nc1nc(OCc2ccccc2)ncc1F [Compound 539],76 to 100,76 to 100,0 to 25,0 to 25,–,–,–,–
Nc1nc(OCc2ccc(Cl)cc2Cl)ncc1F [Compound 540],76 to 100,76 to 100,76 to 100,76 to 100,–,–,–,–
COc1ccccc1COc1ncc(F)c(/N=C/N2CCOCC2)n1 [Compound 541],76 to 100,76 to 100,76 to 100,76 to 100,–,–,–,–
CCOCc1cccc(COc2ncc(F)c(N)n2)c1 [Compound 543],76 to 100,76 to 100,76 to 100,76 to 100,–,–,–,–
CC(Oc1ncc(F)c(N)n1)c1c(F)c(F)c(F)c(F)c1F (centres unmarked) [Compound 544],0 to 25,26 to 50,0 to 25,0 to 25,–,–,–,–
CN(C)CCOc1ncc(F)c(N)n1 [Compound 545],0 to 25,26 to 50,0 to 25,51 to 75,–,–,–,–
Nc1nc(COc2ccc(COc3ncc(F)c(N)n3)cc2)ncc1F [Compound 546],51 to 75,51 to 75,51 to 75,0 to 25,–,–,–,–
Nc1nc(OCc2ccc(F)c(Cl)c2)ncc1F [Compound 547],76 to 100,76 to 100,76 to 100,76 to 100,–,–,–,–
CC(C)NC(=O)Nc1nc(OCc2cccc(C#N)c2)ncc1F [Compound 548],0 to 25,0 to 25,0 to 25,0 to 25,–,–,–,–
Nc1nc(Oc2ccc(Cl)nc2)ncc1F [Compound 549],26 to 50,0 to 25,0 to 25,0 to 25,–,–,–,–
COc1cccc(COc2ncc(F)c(NC(C)=O)n2)c1 [Compound 550],–,–,–,–,76 to 100,76 to 100,76 to 100,76 to 100
Nc1nc(Oc2ccccc2Cl)ncc1F [Compound 551],–,–,–,–,0 to 25,26 to 50,–,–
CCCNC(=S)Nc1nc(OCc2ccc(OC)c(F)c2)ncc1F [Compound 552],–,–,–,–,0 to 25,76 to 100,0 to 25,76 to 100
CCOC(=O)C(=O)Nc1nc(OCc2ccc(C)cc2)ncc1F [Compound 553],–,–,–,–,76 to 100,76 to 100,76 to 100,76 to 100
N#Cc1cccc(COc2ncc(F)c(NC(=O)Nc3ccccc3)n2)c1 [Compound 555],–,–,–,–,0 to 25,0 to 25,0 to 25,0 to 25
COc1cccc(COc2ncc(F)c(N/N=C\c3ncc[nH]3)n2)c1 [Compound 557],–,–,–,–,26 to 50,0 to 25,0 to 25,0 to 25
O=[N+]([O-])c1ccccc1SNc1nc(OCc2ccccc2)ncc1F [Compound 558],–,–,–,–,76 to 100,76 to 100,26 to 50,26 to 50
